Reference: publication PMC7206119, “RIP1 inhibition blocks inflammatory diseases but not tumor growth or metastases” (Cell Death and Differentiation, 2019)

Key:
Test in all cases: biochemical
Parameters in all cases: DiscoverX kinase panel, active-site competition binding (KINOMEscan type), percent of control at one concentration
Conditions in all cases: competition binding, percent of control
[1] = target: PDGFRB (Homo sapiens, UniProt P09619)
[2] = target: KIT(V559D,T670I) (Homo sapiens, UniProt P10721, T670I/V559D)
[3] = target: GAK (Homo sapiens, UniProt O14976)
[4] = target: T1, PRKR (Homo sapiens, UniProt P19525)
T1 construct: gene EIF2AK2

[5] = target: BMPR2 (Homo sapiens, UniProt Q13873)
[6] = target: T2, YES (Homo sapiens, UniProt P07947)
T2 construct: gene YES1

[7] = target: T3, CDK11 (Homo sapiens, UniProt Q9BWU1)
T3 construct: gene CDK19

[8] = target: EGFR (Homo sapiens, UniProt P00533)
[9] = target: T4, RSK3(Kin.Dom.1-N-terminal) (Homo sapiens, UniProt Q15349)
T4 construct: gene RPS6KA2; Kin.Dom.1-N-terminal

[10] = target: EPHA8 (Homo sapiens, UniProt P29322)
[11] = target: T5, MEK3 (Homo sapiens, UniProt P46734)
T5 construct: gene MAP2K3

[12] = target: T6, PFCDPK1(P.falciparum) (Plasmodium falciparum, UniProt P62344)
T6 construct: gene CDPK1

[13] = target: CDK4 (Homo sapiens, UniProt P11802)
[14] = target: MAP3K15 (Homo sapiens, UniProt Q6ZN16)
[15] = target: T7, YANK1 (Homo sapiens, UniProt Q8WU08)
T7 construct: gene STK32A

[16] = target: T8, MRCKB (Homo sapiens, UniProt Q9Y5S2)
T8 construct: gene CDC42BPB

[17] = target: DAPK2 (Homo sapiens, UniProt Q9UIK4)
[18] = target: PKNB(M.tuberculosis) (Mycobacterium tuberculosis, UniProt P9WI81)
[19] = target: CDK7 (Homo sapiens, UniProt P50613)
[20] = target: IGF1R (Homo sapiens, UniProt P08069)
[21] = target: PRKD2 (Homo sapiens, UniProt Q9BZL6)
Sequence of PRKD2 (Q9BZL6 whole entry): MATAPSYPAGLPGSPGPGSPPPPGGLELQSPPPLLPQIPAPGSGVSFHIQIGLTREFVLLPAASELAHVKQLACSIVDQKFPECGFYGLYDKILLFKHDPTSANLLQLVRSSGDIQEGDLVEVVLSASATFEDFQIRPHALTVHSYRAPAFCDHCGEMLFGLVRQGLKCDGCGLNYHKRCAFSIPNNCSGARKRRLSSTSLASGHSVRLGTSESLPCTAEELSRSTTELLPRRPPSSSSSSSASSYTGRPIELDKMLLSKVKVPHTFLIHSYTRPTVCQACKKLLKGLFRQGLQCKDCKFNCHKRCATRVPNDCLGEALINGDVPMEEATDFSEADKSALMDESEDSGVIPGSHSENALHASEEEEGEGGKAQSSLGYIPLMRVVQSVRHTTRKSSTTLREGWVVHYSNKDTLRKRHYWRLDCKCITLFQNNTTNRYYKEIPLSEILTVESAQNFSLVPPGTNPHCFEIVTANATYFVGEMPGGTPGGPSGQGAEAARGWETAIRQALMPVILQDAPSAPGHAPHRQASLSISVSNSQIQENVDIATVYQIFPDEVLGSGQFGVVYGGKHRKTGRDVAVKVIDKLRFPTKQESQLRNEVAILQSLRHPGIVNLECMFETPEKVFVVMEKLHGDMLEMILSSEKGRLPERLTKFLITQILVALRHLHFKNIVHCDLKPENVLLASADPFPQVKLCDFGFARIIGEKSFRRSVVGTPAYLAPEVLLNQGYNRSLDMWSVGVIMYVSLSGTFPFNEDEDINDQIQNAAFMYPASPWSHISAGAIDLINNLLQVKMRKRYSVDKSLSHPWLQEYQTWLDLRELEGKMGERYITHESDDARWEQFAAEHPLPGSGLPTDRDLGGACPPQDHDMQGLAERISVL

Sequence of EGFR (P00533 whole entry): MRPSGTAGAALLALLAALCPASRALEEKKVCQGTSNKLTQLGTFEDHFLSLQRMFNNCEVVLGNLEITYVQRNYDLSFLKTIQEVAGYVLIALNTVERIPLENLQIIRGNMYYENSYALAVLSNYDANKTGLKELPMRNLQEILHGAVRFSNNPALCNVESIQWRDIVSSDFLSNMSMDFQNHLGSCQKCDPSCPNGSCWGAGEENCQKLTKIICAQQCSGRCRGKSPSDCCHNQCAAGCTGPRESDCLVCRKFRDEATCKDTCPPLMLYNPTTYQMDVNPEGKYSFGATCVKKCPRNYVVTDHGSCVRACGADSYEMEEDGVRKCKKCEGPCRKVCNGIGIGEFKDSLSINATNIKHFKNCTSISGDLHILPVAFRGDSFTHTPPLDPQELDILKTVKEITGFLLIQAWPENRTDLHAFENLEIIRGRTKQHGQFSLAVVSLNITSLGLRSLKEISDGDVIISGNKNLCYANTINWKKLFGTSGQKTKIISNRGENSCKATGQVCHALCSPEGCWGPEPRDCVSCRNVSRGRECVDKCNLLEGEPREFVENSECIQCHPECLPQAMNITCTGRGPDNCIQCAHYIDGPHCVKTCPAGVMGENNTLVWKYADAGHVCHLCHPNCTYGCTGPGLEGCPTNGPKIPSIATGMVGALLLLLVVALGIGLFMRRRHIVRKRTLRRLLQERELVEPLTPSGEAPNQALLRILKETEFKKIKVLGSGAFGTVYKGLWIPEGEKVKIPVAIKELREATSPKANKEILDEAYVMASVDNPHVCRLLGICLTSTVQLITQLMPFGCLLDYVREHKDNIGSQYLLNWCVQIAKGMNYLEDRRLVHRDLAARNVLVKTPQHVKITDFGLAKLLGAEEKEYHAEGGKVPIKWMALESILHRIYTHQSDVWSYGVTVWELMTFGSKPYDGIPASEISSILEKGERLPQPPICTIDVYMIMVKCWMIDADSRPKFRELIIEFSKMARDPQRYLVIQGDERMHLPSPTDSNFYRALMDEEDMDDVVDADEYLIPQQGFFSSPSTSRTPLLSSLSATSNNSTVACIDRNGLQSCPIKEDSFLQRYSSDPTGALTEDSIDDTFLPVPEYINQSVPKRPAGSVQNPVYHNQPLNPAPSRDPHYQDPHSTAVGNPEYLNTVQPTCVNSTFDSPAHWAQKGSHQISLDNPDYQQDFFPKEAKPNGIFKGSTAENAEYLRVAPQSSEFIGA
Sequence of KIT(V559D,T670I) (P10721 whole entry V559D/T670I): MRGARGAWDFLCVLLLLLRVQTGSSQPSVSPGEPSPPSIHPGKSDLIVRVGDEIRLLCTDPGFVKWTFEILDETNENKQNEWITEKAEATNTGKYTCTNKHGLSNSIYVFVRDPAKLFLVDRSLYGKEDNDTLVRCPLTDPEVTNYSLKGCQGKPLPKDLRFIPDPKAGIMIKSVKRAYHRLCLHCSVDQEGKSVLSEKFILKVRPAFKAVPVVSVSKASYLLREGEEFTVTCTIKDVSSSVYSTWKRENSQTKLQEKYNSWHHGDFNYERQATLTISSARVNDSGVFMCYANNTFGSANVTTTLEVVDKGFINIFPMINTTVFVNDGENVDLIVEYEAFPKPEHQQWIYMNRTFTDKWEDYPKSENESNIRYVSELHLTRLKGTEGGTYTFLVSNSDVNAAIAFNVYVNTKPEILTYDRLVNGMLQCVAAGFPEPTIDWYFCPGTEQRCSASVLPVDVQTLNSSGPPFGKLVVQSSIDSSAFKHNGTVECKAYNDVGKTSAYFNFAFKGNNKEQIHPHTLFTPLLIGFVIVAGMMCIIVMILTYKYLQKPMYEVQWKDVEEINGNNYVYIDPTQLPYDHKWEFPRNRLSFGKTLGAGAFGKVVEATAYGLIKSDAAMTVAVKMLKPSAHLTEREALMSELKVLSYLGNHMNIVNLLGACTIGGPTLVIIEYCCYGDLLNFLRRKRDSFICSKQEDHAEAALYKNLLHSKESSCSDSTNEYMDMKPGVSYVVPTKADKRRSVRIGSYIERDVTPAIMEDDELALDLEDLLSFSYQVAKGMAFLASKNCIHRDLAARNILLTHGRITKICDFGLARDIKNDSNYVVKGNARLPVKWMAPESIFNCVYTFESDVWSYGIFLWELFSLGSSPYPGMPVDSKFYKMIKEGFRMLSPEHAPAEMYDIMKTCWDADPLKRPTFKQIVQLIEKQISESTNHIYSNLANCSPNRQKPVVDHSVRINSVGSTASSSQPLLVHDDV
Sequence of DAPK2 (Q9UIK4 whole entry): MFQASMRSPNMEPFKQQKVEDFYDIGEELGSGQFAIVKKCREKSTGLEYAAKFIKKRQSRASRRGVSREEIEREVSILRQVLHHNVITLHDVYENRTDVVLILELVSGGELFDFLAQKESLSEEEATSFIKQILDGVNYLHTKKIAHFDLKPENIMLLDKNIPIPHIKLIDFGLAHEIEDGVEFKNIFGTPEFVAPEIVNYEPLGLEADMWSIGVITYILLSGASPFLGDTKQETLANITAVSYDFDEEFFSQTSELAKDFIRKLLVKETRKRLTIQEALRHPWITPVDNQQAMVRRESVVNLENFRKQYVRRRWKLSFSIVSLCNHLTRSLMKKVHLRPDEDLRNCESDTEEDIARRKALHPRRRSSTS
Sequence of PDGFRB (P09619 whole entry): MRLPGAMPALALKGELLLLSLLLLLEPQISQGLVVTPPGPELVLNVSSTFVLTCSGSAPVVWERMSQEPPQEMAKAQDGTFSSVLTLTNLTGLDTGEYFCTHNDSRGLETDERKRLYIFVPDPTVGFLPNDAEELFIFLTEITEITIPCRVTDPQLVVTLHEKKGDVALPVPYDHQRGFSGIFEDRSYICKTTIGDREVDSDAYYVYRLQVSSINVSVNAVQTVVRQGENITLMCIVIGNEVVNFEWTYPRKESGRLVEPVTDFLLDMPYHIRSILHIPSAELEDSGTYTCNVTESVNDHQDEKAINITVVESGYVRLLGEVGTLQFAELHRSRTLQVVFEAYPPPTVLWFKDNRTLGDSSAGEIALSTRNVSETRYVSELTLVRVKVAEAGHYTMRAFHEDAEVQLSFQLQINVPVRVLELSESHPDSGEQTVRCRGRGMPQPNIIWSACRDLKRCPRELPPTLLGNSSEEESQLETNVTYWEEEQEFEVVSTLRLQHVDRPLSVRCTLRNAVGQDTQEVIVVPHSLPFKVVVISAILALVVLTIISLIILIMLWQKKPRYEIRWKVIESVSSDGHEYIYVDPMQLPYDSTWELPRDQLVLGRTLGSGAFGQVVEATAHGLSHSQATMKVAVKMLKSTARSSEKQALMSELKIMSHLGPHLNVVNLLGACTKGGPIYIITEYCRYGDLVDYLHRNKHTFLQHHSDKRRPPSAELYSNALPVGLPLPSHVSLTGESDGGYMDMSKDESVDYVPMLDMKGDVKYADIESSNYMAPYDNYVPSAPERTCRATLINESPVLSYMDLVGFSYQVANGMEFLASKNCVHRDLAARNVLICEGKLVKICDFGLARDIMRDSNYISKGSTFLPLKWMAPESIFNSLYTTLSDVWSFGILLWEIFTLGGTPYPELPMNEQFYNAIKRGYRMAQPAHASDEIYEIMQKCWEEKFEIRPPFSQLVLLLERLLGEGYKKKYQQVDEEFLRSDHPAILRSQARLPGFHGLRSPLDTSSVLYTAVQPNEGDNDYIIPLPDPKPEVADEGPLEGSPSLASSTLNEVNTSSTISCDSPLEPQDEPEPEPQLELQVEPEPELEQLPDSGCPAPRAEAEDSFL
T5 sequence (P46734 whole entry): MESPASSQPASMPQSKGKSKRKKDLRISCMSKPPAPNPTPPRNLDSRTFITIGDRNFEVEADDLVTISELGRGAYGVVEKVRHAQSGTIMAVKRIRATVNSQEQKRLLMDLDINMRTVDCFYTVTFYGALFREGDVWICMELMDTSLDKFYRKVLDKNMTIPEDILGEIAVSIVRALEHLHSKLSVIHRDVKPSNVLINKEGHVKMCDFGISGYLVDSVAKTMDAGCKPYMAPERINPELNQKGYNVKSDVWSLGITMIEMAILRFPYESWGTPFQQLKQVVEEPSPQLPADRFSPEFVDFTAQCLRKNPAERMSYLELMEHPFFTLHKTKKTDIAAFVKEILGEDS

SMILES: COc1cc2c(cn1)N(C)C(=O)[C@@H](NC(=O)c1nc3n(n1)[C@H](c1ccccc1)CC3)CC2 [GNE684, (S)-N-((S)-7-methoxy-1-methyl-2-oxo-2,3,4,5-tetrahydro-1H-pyrido[3,4-b]azepin-3-yl)-5-phenyl-6,7-dihydro-5H-pyrrolo[1,2-b][1,2,4]triazole-2-carboxamide]
- remaining binding at 10 µM [1]: 94%
- remaining binding at 10 µM [2]: 100%
- remaining binding at 10 µM [3]: 92%
- remaining binding at 10 µM [4]: 100%
- remaining binding at 10 µM [5]: 100%
- remaining binding at 10 µM [6]: 95%
- remaining binding at 10 µM [7]: 81%
- remaining binding at 10 µM [8]: 100%
- remaining binding at 10 µM [9]: 92%
- remaining binding at 10 µM [10]: 100%
- remaining binding at 10 µM [11]: 87%
- remaining binding at 10 µM [12]: 100%
- remaining binding at 10 µM [13]: 100%
- remaining binding at 10 µM [14]: 94%
- remaining binding at 10 µM [15]: 100%
- remaining binding at 10 µM [16]: 100%
- remaining binding at 10 µM [17]: 74%
- remaining binding at 10 µM [18]: 96%
- remaining binding at 10 µM [19]: 75%
- remaining binding at 10 µM [20]: 87%
- remaining binding at 10 µM [21]: 100%
